Assay [1] addresses T1, ICAM-1 binding to immobilized Mac-1 (Homo sapiens, UniProt P05107+P11215).
T1 construct: made in house; host or cells: transfected 293 cells (Mac-1)
The experiment in a line: Mac-1/ICAM-1 screening assay (solid-phase ELISA). As to conditions: read-out: Mac-1/ICAM-1 Protein-Protein Assay IC50. The method, boiled down: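 Competitive solid-phase ELISA: membrane Mac-1 from transfected 293 cells coated at 3 μg/mL in 20 mM Hepes pH 7.2/0.14 M NaCl/1 mM MnCl2; compounds (0.12 nM-20 μM, 1:4 series) plus 5dICAM-Ig (40 μg/mL, added) 2 h at 37° C. Bound ICAM-Ig detected with HRP anti-human IgG Fc, TMB, A450; IC50 reported.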

For assay [2], the system named is cell-surface Mac-1 adhesion to immobilized fibrinogen (HL-60 cells). The experiment in a line: Mac-1/Fibrinogen cell-based screening assay. On the set-up: species or system human. To be noted: Homo sapiens, HL-60, HL-60 cells; read-out: Mac-1/Fgn Cell based Assay IC50. In outline: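 Wells coated with fibrinogen and blocked with PVP. Labeled HL-60 cells (2×10^6 cells/mL in RPMI/0.05% BSA/0.2 mM MnCl2) preincubated with DMSO-diluted compounds for 10 min at 37° C, then left to adhere 30 min at 37° C/5% CO2. Unbound cells washed off with TBS.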

Structures are written as SMILES.

T1 sequence (P05107 23-769, other chains not shown): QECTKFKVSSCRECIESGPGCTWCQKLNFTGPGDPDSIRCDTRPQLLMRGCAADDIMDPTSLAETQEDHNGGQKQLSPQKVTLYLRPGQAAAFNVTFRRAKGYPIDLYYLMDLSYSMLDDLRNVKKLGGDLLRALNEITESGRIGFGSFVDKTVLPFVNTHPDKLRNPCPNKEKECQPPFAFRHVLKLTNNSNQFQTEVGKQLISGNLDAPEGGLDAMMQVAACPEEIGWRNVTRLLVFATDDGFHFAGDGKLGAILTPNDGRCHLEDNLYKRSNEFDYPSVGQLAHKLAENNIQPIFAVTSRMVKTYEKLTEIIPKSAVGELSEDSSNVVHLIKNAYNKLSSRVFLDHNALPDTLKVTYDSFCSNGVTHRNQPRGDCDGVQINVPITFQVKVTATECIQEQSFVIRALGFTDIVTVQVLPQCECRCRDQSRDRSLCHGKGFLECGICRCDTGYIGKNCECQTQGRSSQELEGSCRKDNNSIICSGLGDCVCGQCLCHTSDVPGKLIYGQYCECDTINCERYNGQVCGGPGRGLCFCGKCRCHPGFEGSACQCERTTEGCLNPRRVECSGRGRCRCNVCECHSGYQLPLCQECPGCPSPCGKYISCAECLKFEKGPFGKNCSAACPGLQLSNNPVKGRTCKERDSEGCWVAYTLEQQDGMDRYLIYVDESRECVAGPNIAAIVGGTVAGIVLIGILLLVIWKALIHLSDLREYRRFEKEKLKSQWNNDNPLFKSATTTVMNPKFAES

Consider `O=C(CC1CCCC1)NC[C@H](NC(=O)c1ccc(C(=O)NCc2cccc(O)c2)cc1Cl)C(=O)O` [Example 77], for which the IC50 in assay [1] stood at 25 nM; in assay [2] it was 312 nM.

These data come from patent publication US20040006236A1, “Diaminopropionic acid derivatives” (priority 1999, published 2004).
